In US11672788B2, “Histone deacetylase inhibitors for immunomodulation in tumor microenvironment” (GREAT NOVEL THERAPEUTICS BIOTECH & MEDICALS CORPORATION, priority 2020, dated 2023):
≈ marks a conversion by molar mass, not a printed value. Entries after “also recorded” stand apart in the source; their conditions may differ.

Tests used:
Saturation solubility = type: physicochemical; conditions: water, thermodynamic from solid, ddH2O, 25° C., mean ± SD, BDL: Below detection limit
Protocol: Samples of 5 mg of compounds were added to 5 ml volumetric flasks containing ddH2O and shaken at 100 rpm in an incubator at 25° C. for 90 minutes. The resulting suspension was filtered through a 0.22 μm filter. The concentrations of compounds were determined spectrophotometrically at 256 nm. The saturation solubility of each sample was determined in triplicates and the mean value and standard deviation were reported.

HDAC1 = HDAC1 (Homo sapiens (Human), UniProt Q13547); assay: HDACs 1, 2, and 3 enzymatic inhibition (fluorogenic kit, 1 h); type: biochemical; conditions: 37° C.
Chain of HDAC1 (Q13547 whole entry): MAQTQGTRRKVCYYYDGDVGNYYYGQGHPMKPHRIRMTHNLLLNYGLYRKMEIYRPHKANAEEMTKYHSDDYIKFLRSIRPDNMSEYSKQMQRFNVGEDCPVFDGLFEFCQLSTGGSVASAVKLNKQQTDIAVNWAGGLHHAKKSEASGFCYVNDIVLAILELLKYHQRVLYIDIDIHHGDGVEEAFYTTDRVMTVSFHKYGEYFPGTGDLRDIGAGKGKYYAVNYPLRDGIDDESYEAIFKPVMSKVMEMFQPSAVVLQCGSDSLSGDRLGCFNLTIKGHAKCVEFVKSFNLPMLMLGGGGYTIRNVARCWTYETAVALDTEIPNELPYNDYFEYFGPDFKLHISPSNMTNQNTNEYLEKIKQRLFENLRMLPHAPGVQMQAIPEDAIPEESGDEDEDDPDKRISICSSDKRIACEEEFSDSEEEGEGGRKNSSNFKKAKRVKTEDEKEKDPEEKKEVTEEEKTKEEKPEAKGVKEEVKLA
Protocol: (§1) HDACs assay was performed according to standard Protocols (Fluorgenic HDACs 1, 2, and 3 assay kit, BPS Bioscience™). […] After 1 h, assay developer was added to the samples and the absorbance was read at fluorogenic wavelength. The relative inhibition to HDACs 1, 2, and 3 activities in each sample was determined.

HDAC2 = HDAC2 (Homo sapiens (Human), UniProt Q92769); assay: as above; type: biochemical; conditions: 37° C.
Chain of HDAC2 (Q92769 whole entry): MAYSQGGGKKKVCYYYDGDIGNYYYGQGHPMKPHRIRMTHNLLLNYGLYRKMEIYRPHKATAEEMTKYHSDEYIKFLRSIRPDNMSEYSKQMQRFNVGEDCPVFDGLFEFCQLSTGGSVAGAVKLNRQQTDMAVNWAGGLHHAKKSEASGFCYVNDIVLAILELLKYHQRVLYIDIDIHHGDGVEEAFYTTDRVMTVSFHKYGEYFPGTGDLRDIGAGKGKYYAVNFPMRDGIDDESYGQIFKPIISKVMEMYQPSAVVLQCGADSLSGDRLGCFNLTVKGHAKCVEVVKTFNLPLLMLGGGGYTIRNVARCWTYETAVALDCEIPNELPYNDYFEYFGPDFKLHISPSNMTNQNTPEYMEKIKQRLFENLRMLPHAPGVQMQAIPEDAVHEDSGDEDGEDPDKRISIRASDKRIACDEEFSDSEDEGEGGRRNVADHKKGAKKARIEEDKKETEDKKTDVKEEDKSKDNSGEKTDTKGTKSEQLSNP
Protocol: as §1

HDAC3 = HDAC3 (Homo sapiens (Human), UniProt O15379); assay: as above; type: biochemical; conditions: 37° C.
Chain of HDAC3 (O15379 whole entry): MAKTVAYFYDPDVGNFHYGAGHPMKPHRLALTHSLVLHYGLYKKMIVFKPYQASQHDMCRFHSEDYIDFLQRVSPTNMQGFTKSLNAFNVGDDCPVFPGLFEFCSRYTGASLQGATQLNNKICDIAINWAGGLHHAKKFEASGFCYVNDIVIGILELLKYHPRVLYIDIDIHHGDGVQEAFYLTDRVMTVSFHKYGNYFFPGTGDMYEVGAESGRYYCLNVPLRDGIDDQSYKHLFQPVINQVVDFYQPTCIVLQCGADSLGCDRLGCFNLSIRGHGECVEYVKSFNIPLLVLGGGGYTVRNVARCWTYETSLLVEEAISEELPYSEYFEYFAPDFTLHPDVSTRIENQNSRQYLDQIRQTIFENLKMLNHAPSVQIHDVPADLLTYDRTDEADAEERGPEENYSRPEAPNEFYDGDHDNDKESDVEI
Chain of HDAC3 (Q9Y618 395-489 partner): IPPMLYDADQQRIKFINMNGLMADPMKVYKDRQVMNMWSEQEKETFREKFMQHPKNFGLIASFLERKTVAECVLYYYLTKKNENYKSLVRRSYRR
Protocol: as §1

M10 cells = assay: Cell cycle arrest by PI flow cytometry; type: cell-based, human; conditions: M10, 12.5 μM, 72 h
Protocol: (§2) A PI/RNase staining assay (BD Bioscience™) was performed to reveal the presence of cell cycle arrest and apoptotic cells after treatment with GNTbm compounds, Chidamide and Entinostat. […] After treatment cells were harvested, fixed with 80% ethanol for 24 h, washed with 1×PBS and stained with PI/RNase for 15 min at room temperature. The cells were then analyzed using Flow Cytometer within 1 h.

MDA-MB-231 cells = assay: Cell cycle arrest by PI flow cytometry; type: cell-based, human; conditions: MDA-MB-231, 3.125 μM, 72 h
Protocol: as §2

SW48 cells = assay: Cell cycle arrest by PI flow cytometry; type: cell-based, human; conditions: SW48, 3.125 μM, 72 h
Protocol: as §2

HDAC3/NCOR2 = HDAC3/NCOR2 (Homo sapiens (Human), UniProt O15379); assay: HDACs 1-11 enzymatic inhibition by BPS Bioscience
Chain of HDAC3/NCOR2 (O15379 whole entry): as the sequence (O15379 whole entry) above
Chain of HDAC3/NCOR2 (Q9Y618 395-489 partner): as the sequence (Q9Y618 395-489 partner) above
Protocol: HDAC assay was performed according to standard Protocols (Fluorgenic HDACs 1-11 assay kit, BPS Bioscience™). […] After 0.5 h, assay developer was added to the samples and the absorbance was read at fluorogenic wavelength. The relative inhibition to HDACs 1, 2, 3, 4, 5, 6, 7, 8, 9, and 11 activities was determined in each sample. […] All of the compounds were dissolved in DMSO. The serial dilution of the compounds was first performed in 100% DMSO with the highest concentration at 1 mM. Each intermediate compound dilution (in 100% DMSO) would then get directly diluted 10× fold into assay buffer for an intermediate dilution of 10% DMSO in HDAC assay buffer and 5 μl of the dilution was added to a 50 μl reaction so that the final concentration of DMSO is 1% in all of the reactions. […] Fluorescence intensity was measured at an excitation of 360 nm and an emission of 460 nm using a Tecan Infinite M1000 microplate reader. […] The fluorescent intensity data were analyzed using the computer software, Graphpad Prism. […] The percent activity in the presence of each compound was calculated according to the following equation: % activity=(F−Fb)/(Ft−Fb), where F=the fluorescent intensity in the presence of the compound. […] The IC50 value was determined by the concentration causing a half-maximal percent activity.

HDAC7 = HDAC7 (Homo sapiens (Human), UniProt Q8WUI4); assay: HDACs 1-11 enzymatic inhibition by BPS Bioscience
Chain of HDAC7 (Q8WUI4 whole entry): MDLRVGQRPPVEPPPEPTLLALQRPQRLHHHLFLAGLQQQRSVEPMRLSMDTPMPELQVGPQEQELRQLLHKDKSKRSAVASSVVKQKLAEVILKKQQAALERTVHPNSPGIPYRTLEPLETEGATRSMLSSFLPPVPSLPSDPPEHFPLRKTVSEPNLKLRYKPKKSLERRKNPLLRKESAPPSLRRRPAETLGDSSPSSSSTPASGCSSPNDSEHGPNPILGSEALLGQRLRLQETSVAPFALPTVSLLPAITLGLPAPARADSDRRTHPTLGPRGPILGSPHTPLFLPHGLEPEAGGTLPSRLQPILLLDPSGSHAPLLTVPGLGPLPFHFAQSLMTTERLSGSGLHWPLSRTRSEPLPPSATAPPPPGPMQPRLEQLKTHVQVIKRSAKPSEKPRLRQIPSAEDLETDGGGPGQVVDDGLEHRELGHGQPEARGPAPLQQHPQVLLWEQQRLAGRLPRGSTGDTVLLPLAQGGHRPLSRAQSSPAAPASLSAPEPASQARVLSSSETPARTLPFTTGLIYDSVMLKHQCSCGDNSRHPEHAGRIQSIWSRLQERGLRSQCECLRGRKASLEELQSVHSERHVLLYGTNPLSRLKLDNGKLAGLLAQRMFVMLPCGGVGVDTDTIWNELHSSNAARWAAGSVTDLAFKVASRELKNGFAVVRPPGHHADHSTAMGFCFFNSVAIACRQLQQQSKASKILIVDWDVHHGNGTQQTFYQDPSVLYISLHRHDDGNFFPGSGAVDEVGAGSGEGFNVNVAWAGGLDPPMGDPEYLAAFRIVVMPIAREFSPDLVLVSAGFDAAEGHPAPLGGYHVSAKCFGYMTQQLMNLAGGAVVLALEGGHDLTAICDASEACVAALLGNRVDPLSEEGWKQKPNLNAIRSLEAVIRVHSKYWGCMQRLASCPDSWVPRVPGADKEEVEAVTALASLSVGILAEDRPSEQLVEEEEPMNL
Protocol: (§3) HDAC assay was performed according to standard Protocols (Fluorgenic HDACs 1-11 assay kit, BPS Bioscience™). […] After 0.5 h, assay developer was added to the samples and the absorbance was read at fluorogenic wavelength. The relative inhibition to HDACs 1, 2, 3, 4, 5, 6, 7, 8, 9, and 11 activities was determined in each sample. […] All of the compounds were dissolved in DMSO. The serial dilution of the compounds was first performed in 100% DMSO with the highest concentration at 1 mM. Each intermediate compound dilution (in 100% DMSO) would then get directly diluted 10× fold into assay buffer for an intermediate dilution of 10% DMSO in HDAC assay buffer and 5 μl of the dilution was added to a 50 μl reaction so that the final concentration of DMSO is 1% in all of the reactions. The enzymatic reactions for the HDAC enzymes were conducted in duplicate at 37° C. for 30 minutes in a 50 μl mixture containing HDAC assay buffer, 5 μg BSA, an HDAC substrate, a HDAC enzyme and a test compound. After enzymatic reactions, 50 μl of 2×HDAC Developer was added to each well for the HDAC enzymes and the plate was incubated at room temperature for an additional 15 minutes. Fluorescence intensity was measured at an excitation of 360 nm and an emission of 460 nm using a Tecan Infinite M1000 microplate reader. HDAC activity assays were performed in duplicate at each concentration. The fluorescent intensity data were analyzed using the computer software, Graphpad Prism. In the absence of the compound, the fluorescent intensity (Ft) in each data set was defined as 100% activity. In the absence of HDAC, the fluorescent intensity (Fb) in each data set was defined as 0% activity. The percent activity in the presence of each compound was calculated according to the following equation: % activity=(F−Fb)/(Ft−Fb), where F=the fluorescent intensity in the presence of the compound. […] The IC50 value was determined by the concentration causing a half-maximal percent activity.

HDAC9 = HDAC9 (Homo sapiens (Human), UniProt Q9UKV0); assay: HDACs 1-11 enzymatic inhibition by BPS Bioscience
Chain of HDAC9 (Q9UKV0 whole entry): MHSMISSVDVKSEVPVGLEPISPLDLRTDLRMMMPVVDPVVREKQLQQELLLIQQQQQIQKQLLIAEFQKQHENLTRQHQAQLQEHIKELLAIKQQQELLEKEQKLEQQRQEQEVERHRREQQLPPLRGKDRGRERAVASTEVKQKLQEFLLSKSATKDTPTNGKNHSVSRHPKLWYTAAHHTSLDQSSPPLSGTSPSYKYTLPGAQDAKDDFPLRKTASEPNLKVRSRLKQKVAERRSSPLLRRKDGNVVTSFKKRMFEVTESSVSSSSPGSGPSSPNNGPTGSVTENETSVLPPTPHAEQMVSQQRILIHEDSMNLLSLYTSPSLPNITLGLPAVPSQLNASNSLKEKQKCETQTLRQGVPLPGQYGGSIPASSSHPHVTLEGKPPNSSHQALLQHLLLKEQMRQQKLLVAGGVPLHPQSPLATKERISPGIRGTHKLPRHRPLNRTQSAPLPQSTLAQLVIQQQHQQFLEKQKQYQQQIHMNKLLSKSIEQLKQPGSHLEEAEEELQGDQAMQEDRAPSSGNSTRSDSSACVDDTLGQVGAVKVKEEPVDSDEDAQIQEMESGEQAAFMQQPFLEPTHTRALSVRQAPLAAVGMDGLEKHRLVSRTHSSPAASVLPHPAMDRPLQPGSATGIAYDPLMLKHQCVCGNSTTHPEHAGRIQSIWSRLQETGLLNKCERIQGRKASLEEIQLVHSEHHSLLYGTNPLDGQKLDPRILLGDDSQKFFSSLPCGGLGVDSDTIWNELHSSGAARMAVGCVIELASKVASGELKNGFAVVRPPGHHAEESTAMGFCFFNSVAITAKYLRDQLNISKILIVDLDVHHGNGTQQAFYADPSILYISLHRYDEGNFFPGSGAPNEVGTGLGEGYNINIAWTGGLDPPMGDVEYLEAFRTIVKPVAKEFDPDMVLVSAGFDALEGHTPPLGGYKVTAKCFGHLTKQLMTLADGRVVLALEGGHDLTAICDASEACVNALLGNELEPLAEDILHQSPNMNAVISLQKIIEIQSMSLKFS
Protocol: as §3

solubility at 90 min (Saturation solubility): 33.6 µg/mL (≈ 82.9 µM) | IC50 (HDAC1): 520 ± 20 nM | IC50 (HDAC2): 550 ± 60 nM | IC50 (HDAC3): 670 ± 5 nM | IC50 (HDAC3/NCOR2): 730 nM | IC50 (HDAC7): > 10000 nM | IC50 (HDAC9): > 10000 nM
Compound: Cc1ccc(/C=C/CC(=O)Nc2ccc(C(=O)Nc3ccc(F)cc3N)nc2)cn1 [GNTbm-02, 5-((E)-4-(6-methylpyridin-3-yl)but-3-enamido)-N-(2-amino-4-fluorophenyl)pyridine-2-carboxamide]
Cell cycle arrest (M10 cells): significantly induced cell cycle arrest of M10 cells in the G2/M phase | Cells in G2/M phase (M10 cells): 16.2% | Cell cycle arrest (MDA-MB-231 cells): significantly induced cell cycle arrest in G0/G1 phase | Cell cycle arrest (SW48 cells): significantly induced cell cycle arrest in G0/G1 phase | Cells in G0/G1 phase (SW48 cells): 76.9% | HDAC7 Inhibition at 10 μM (HDAC7; 10 μM): not inhibited; also recorded: No Inhibition at 10 μM | HDAC9 Inhibition at 10 μM (HDAC9; 10 μM): not inhibited; also recorded: No Inhibition at 10 μM
